Measurements taken from patent US20250051263A1, “NOVEL IONIZABLE LIPIDS AND LIPID NANOPARTICLES AND METHODS OF USING THE SAME” (Sail Biomedicines, Inc., priority 2021, published 2025).

Legend:
[1] = LNP size and polydispersity, Zetasizer Ultra; format: physicochemical
From the text: (§1) All other compositions (i.e., compositions of MC3 (a commercially available ionizable lipid having a chemical name of (6Z,9Z,28Z,31Z)-heptatriacont-6,9,28,31-tetraene-19-yl 4-(dimethylamino)butanoate, and compositions of novel ionizable lipids 7669, 7671, 7668, 767, 7650) are composed of ionizable lipid:structural lipid:sterol:PEG-lipid (SDA lipid #:DSPC:cholesterol:14:0 PEG2000 PE) at a molar ratio of […], respectively. Lipids are solubilized in ethanol. Compositions are then handled as above, except the formulations are maintained at ionizable lipid to mRNA N:P ratio of 6:1. The lipid mix and mRNA solution are mixed at a 1:3 ratio by volume, respectively, on a NanoAssemblr Ignite (Precision Nanosystems) at a total flow rate of 9 mL/min. Resulting compositions are then loaded into Slide-A-Lyzer G2 dialysis cassettes (10 k MWCO) and dialyzed in 200 times sample volume of 1×PBS for 4 hrs at room temp with gentle stirring. The PBS is refreshed, and the compositions are further dialyzed for at least 14 hrs at 4° C. with gentle stirring. The dialyzed compositions are then collected and concentrated by centrifugation at 2000×g using Amicon Ultra centrifugation filters (100 k MWCO). Concentrated particles are characterized for size, polydispersity, and particle concentration using Zetasizer Ultra (Malvern Panalytical) and for mRNA encapsulation efficiency using Quant-iT RiboGreen RNA Assay Kit (ThermoFisher Scientific).
(§2) The lipid mix and mRNA solution were mixed at a 1:3 ratio by volume, respectively, on the NanoAssemblr Ignite (Precision Nanosystems) at a total flow rate of 9 mL/min. Resulting formulations were then loaded into Slide-A-Lyzer G2 dialysis cassettes (10 k MWCO) and dialyzed in 200 times sample volume of 1×PBS for 2 hrs at room temperature. The PBS was refreshed, and the formulations were further dialyzed for at least 14 hrs at 4° C. with gentle stirring. The dialyzed formulations were then collected and concentrated by centrifugation at 3000×g using Amicon Ultra centrifugation filters (100 k MWCO). The concentrated formulations were characterized for size, polydispersity, and particle concentration using Zetasizer Ultra (Malvern Panalytical) and for mRNA encapsulation efficiency using Quant-iT RiboGreen RNA Assay Kit (ThermoFisher Scientific).
(§3) For each LNP composition, the lipid mix and mRNA solution were mixed at a 1:3 ratio by volume, respectively, on a NanoAssemblr Ignite (Precision Nanosystems) at a total flow rate of 9 mL/min. The resulting compositions were then loaded into Slide-A-Lyzer G2 dialysis cassettes (10 k MWCO) and dialyzed in 200 times sample volume of 1×PBS for 2 hours at room temperature with gentle stirring. The PBS was refreshed, and the compositions were further dialyzed for at least 14 hours at 4° C. with gentle stirring. The dialyzed compositions were then collected and concentrated by centrifugation at 3000×g using Amicon Ultra centrifugation filters (100 k MWCO). The concentrated particles were characterized for size, polydispersity, and particle concentration using Zetasizer Ultra (Malvern Panalytical) and for mRNA encapsulation efficiency using Quant-iT RiboGreen RNA Assay Kit (ThermoFisher Scientific).

[2] = mRNA encapsulation efficiency, Quant-iT RiboGreen RNA Assay; format: physicochemical
From the text: as §1, §2, §3

[3] = test system: Balb/c mice; experiment: In-vivo bioluminescent imaging after IV injection of Fluc mRNA LNP; conditions: for Bioluminescence (IV) Liver / Bioluminescence (IV) Lung / Bioluminescence (IV) Spleen / Bioluminescence (IV) Whole Body / Spleen: Liver Ratio: Example 5 LNP (DOPE 35:16:46.5:2.5), 5 μg FLUC + 5 μg EPO; for Bioluminescence (IV) Liver / Bioluminescence (IV) Lung / Bioluminescence (IV) Spleen / Bioluminescence (IV) Whole Body / Bioluminescence Liver / Bioluminescence Lung / Bioluminescence Spleen: 4-6 hours post-dose; for Bioluminescence (IV) Liver / Bioluminescence (IV) Lung / Bioluminescence (IV) Spleen / Bioluminescence (IV) Whole Body / Spleen: Liver Ratio / Bioluminescence Liver / Bioluminescence Lung / Bioluminescence Spleen: IV; for Spleen: Liver Ratio: ratio of bioluminescence; for Bioluminescence Liver / Bioluminescence Lung / Bioluminescence Spleen: 5 ug Fluc+5 ug EPO mRNA
Description: 8-9 week old female Balb/c mice are utilized for bioluminescence-based ionizable lipid screening efforts. Mice are obtained from Jackson Laboratories (JAX Stock: 000651) and allowed to acclimate for one week prior to manipulations. Animals are placed under a heat lamp for a few minutes before introducing them to a restraining chamber. The tail is wiped with alcohol pads (Fisher Scientific) and 100 μL of a lipid nanoparticle composition descrbed above containing 10 ug total mRNA (5 ug Fluc+5 ug EPO) is injected intravenously using a 29 G insulin syringe (Covidien). Any resulting bleeding is stemmed using a sterile gauze pad (Fisher Scientific) and animals are placed back into their home cage. 4-6 hours post-dose, animals are injected with 200 μL of 15 mg/mL D-Luciferin (GoldBio) and placed in an isoflurane induction chamber set to deliver 2.5% isoflurane delivered at an oxygen flow rate of 1-2 liters per min. After 5 minutes of isoflurane exposure, mice are placed in set nose cones inside the IVIS Lumina LT imager (PerkinElmer). LivingImage software is utilized for imaging. Whole body bio-luminescence is captured at auto-exposure after which animals are removed from the IVIS and placed into a CO2 chamber for euthanasia. Cardiac puncture is performed on each animal after placing it in dorsal recumbency, and blood collection is performed using a 25 G insulin syringe (BD). Blood is collected in Lithium-Heparin coated tubes (Fisher Scientific) and immediately placed on ice. Once all blood samples are collected, tubes are spun at 2000 G for 10 minutes using a tabletop centrifuge and plasma is aliquoted into individual Eppendorf tubes (Fisher Scientific) and stored at −80 C for subsequent EPO quantification. EPO levels in plasma are determined using EPO MSD kit (Meso Scale Diagnostics).
8-9 week old female Balb/c mice were utilized for bioluminescence-based ionizable lipid screening efforts. Mice were obtained from Jackson Laboratories (JAX Stock: 000651) and allowed to acclimate for one week prior to manipulations. Animals were placed under a heat lamp for a few minutes before introducing them to a restraining chamber. The tail was wiped with alcohol pads (Fisher Scientific) and, for each LNP composition descrbed above, 100 μL of a lipid nanoparticle composition descrbed above containing 10 μg total mRNA (5 μg Fluc+5 μg EPO, 5 μg Fluc+5 μg Cre, or 5 μg EGFP) was injected intravenously using a 29 G insulin syringe (Covidien).
4-6 hours post-dose, animals were injected with 200 μL of 15 mg/mL D-Luciferin (GoldBio), and placed in set nose cones inside the IVIS Lumina LT imager (PerkinElmer). LivingImage software was utilized for imaging. Whole body bio-luminescence was captured at auto-exposure after which animals are removed from the IVIS and placed into a CO2 chamber for euthanasia. Cardiac puncture was performed on each animal after placing it in dorsal recumbency, and blood collection was performed using a 25 G insulin syringe (BD). Once all blood samples were collected, tubes are spun at 2000 G for 10 minutes using a tabletop centrifuge and plasma was aliquoted into individual Eppendorf tubes (Fisher Scientific) and stored at −80° C. for subsequent EPO quantification. EPO levels in plasma were determined using EPO MSD kit (Meso Scale Diagnostics).

[4] = Example 5 LNP lipid:DOPE:Plant Cholesterol:DMPE-PEG2k 35:16:46.5:2.5, FLUC/EPO 1:1 mRNA, N:P 6:1
[5] = LNP ionizable lipid:DOPE:Plant Chol.:DMPE-PEG2k 35:16:46.5:2.5 (Table 1)
[6] = LNP ionizable lipid:DSPC:Plant Chol.:DMPE-PEG2k 50:10:38.5:1.5
[7] = LNP lipid:DOPE:Plant Chol.:DMPE-PEG2k 35:16:46.5:2.5 (Table 1)
[8] = LNP lipid:DSPC:Plant Chol.:DMPE-PEG2k 50:10:38.5:1.5

SMILES	PDI [1, 4]	Size (nm) [1, 4]	% EE [2, 4]	Bioluminescence (IV) Liver [3]	Bioluminescence (IV) Lung [3]	Bioluminescence (IV) Spleen [3]	Bioluminescence (IV) Whole Body [3]	Spleen: Liver Ratio [3]	PDI [1, 5]	Size (nm) [1, 5]	PDI [1, 6]	Size (nm) [1, 6]	% EE [2, 5]	Bioluminescence Liver [3, 7]	Bioluminescence Lung [3, 7]	Bioluminescence Spleen [3, 7]	Bioluminescence Liver [3, 8]	Bioluminescence Lung [3, 8]	Bioluminescence Spleen [3, 8]	bioluminescence in the liver, spleen, and lung ([3]; used as part of an ionizable lipid scaffold (LNP), Table 1)
CCCCCCCCCCC(CC)OC(=O)CCCCCN(CCCCCCCC(=O)OC(CCCCCCCC)CCCCCCCC)CCNC(=O)CCC(=O)NCCN(CCCCCCCC(=O)OC(CCCCCCCC)CCCCCCCC)CCCCCC(=O)OC(CC)CCCCCCCCCC (stereo not shown) [Compound 2356, 1-octylnonyl 8-[[6-(1-ethylundecoxy)-6-oxo-hexyl]-[2-[[4-[2-[[6-(1-ethylundecoxy)-6-oxo-hexyl]-[8-(1-octylnonoxy)-8-oxo-octyl]amino]ethylamino]-4-oxo-butanoyl]amino]ethyl]amino]octanoate]	0.10	74.2 nm	95.0%	1.3E+08	9.1E+03	1.3E+06	8.1E+08	0.010	–	–	–	–	–	–	–	–	–	–	–	–
CCCCCCCCCCCOC(=O)CCCCCN(CCCCCCCC(=O)OCCCC(CCCCC)CCCCC)CCNC(=O)/C=C/C(=O)NCCN(CCCCCCCC(=O)OCCCC(CCCCC)CCCCC)CCCCCC(=O)OCCCCCCCCCCC [Compound 2382, 4-pentylnonyl 8-[2-[[(E)-4-oxo-4-[2-[[8-oxo-8-(4-pentylnonoxy)octyl]-(6-oxo-6-undecoxy-hexyl)amino]ethylamino]but-2-enoyl]amino]ethyl-(6-oxo-6-undecoxy-hexyl)amino]octanoate]	0.13	105.2 nm	87.3%	1.9E+07	2.1E+04	2.1E+06	1.5E+08	0.104	–	–	–	–	–	–	–	–	–	–	–	–
CCCCCCCCCCCOC(=O)CCCCCN(CCCCCCCC(=O)OCCCC(CCCCC)CCCCC)CCN1CCN(CCN(CCCCCCCC(=O)OCCCC(CCCCC)CCCCC)CCCCCC(=O)OCCCCCCCCCCC)CC1 [Compound 2397, 4-pentylnonyl 8-[2-[4-[2-[[8-oxo-8-(4-pentylnonoxy)octyl]-(6-oxo-6-undecoxy-hexyl)amino]ethyl]piperazin-1-yl]ethyl-(6-oxo-6-undecoxy-hexyl)amino]octanoate]	0.09	114.0 nm	94.0%	1.4E+07	9.4E+03	6.5E+05	6.5E+07	0.052	–	–	–	–	–	–	–	–	–	–	–	–
C=C(CN(CCCCCCCC(=O)OC(CCCCCCCC)CCCCCCCC)CCCCCC(=O)OCCCCCCCCCCC)CN(CCCCCCCC(=O)OC(CCCCCCCC)CCCCCCCC)CCCCCC(=O)OCCCCCCCCCCC [Compound 2253, 1-octylnonyl 8-[2-[[[8-(1-octylnonoxy)-8-oxo-octyl]-(6-oxo-6-undecoxy-hexyl)amino]methyl]allyl-(6-oxo-6-undecoxy-hexyl)amino]octanoate]	0.23	107.9 nm	82.7%	1.3E+03	7.2E+02	1.2E+03	3.8E+03	0.937	0.23	107.87 nm	0.18	120.70 nm	82.7%	1.33E+03	7.18E+02	1.24E+03	1.30E+03	6.16E+02	9.98E+02	improved bioluminescence
CCCCCCCCCCCOC(=O)CCCCCN(CCCCCCCC(=O)OC(CCCCCC)CCCCCCCC)CCNC(=O)CCC(=O)NCCN(CCCCCCCC(=O)OC(CCCCCC)CCCCCCCC)CCCCCC(=O)OCCCCCCCCCCC (stereo not shown) [Compound 2390, 1-hexylnonyl 8-[2-[[4-[2-[[8-(1-hexylnonoxy)-8-oxo-octyl]-(6-oxo-6-undecoxy-hexyl)amino]ethylamino]-4-oxo-butanoyl]amino]ethyl-(6-oxo-6-undecoxy-hexyl)amino]octanoate]	0.09	71.6 nm	90.6%	1.9E+07	1.2E+04	1.7E+06	1.9E+08	0.094	–	–	–	–	–	–	–	–	–	–	–	–
